Patent publication US11160817B2, “Nutritional compositions comprising neuroprotective dietary oligosaccharides” (ABBOTT LABORATORIES, priority 2012, dated 2021)
Read-outs that look alike come from different tables or passages of the source. Marks after values point to notes of the source that are not given here.

Legend:
[1] = test system: fecal samples from formula-fed infants (intestinal flora); assay: Anaerobic fermentation of HMOs with fecal inocula of formula-fed infants, agmatine in supernatant by GC/MS and LC/MS/MS; type: cell-based, human; conditions: for Increase of agmatine, HMO/blank (relative ratio of agmatine compared to the blank): formula fed infants, fermentation culture 37° C.
Experimental: (§1) Fecal samples from eight human babies, one group of four breast-fed and the other group of four formula-fed, were used as inocula for anaerobic fermentation (37° C.) of lacto-N-neotetraose (LNnT) and 2′-fucosyllactose. Supernatants from the fermentation cultures were sampled at 0 hr, 3 hr, and 6 hr. A culture without addition of HMOs served as a control. A sample of the fermentation medium (blank), which constituted approximately 90% of the starting culture volume, was also analyzed.
(§2) Samples were extracted and split into equal parts for analysis on GC/MS and LC/MS/MS platforms. Agmatine ions were identified in chromatograms, and peak area was integrated for quantitative analysis.

[2] = test system: fecal samples from breast-fed infants (intestinal flora); assay: Anaerobic fermentation of HMOs with fecal inocula of breast-fed infants, agmatine in supernatant by GC/MS and LC/MS/MS; type: cell-based, human; conditions: for Increase of agmatine, HMO/blank (relative ratio of agmatine compared to the blank): breast fed infants, fermentation culture 37° C.
Experimental: as §1, §2

[3] = non-human primates, peripheral injection at 50 and 300 mg/kg; cited from earlier work
[4] = mice, peripheral injection at 50 and 300 mg/kg; cited from earlier work
[5] = test system: nitric oxide synthase (NOS), all isoforms; conditions: cited from earlier work
[6] = test system: NMDA subclass of glutamate receptors; conditions: cited from earlier work

CC(=O)N[C@H]1[C@H](O[C@H]2[C@@H](O)[C@@H](CO)O[C@@H](O[C@H]3[C@H](O)[C@@H](O)C(O)O[C@@H]3CO)[C@@H]2O)O[C@H](CO)[C@@H](O[C@@H]2O[C@H](CO)[C@H](O)[C@H](O)[C@H]2O)[C@@H]1O (mixture of isomers) [LNnT, lacto-N-neotetraose]
agmatine relative to a blank (in words) ([1]; fecal samples from formula-fed infants (FF)): dramatic increases in agmatine | Increase of agmatine, HMO/blank (relative ratio of agmatine compared to the blank) ([1]; 0 h): 2.12 | Increase of agmatine, HMO/blank (relative ratio of agmatine compared to the blank) ([1]; 3 h): 61.77^a | Increase of agmatine, HMO/blank (relative ratio of agmatine compared to the blank) ([1]; 6 h): 75.02^a | Increase of agmatine, HMO/blank (relative ratio of agmatine compared to the blank) ([2]; 0 h): 9.52^a | Increase of agmatine, HMO/blank (relative ratio of agmatine compared to the blank) ([2]; 3 h): 34.4 | Increase of agmatine, HMO/blank (relative ratio of agmatine compared to the blank) ([2]; 6 h): 1.59 | agmatine relative to a blank (in words) ([2]; fecal samples from breast-fed infants (BF)): dramatic increases in agmatine

N=C(N)NCCCCN [agmatine]
brain agmatine concentrations [3]: significant increases in brain agmatine concentrations | brain agmatine concentrations [4]: significant increases in brain agmatine concentrations | inhibition of NOS isoforms [5]: inhibit all isoforms of NOS | nitric oxide production [5]: suppress nitric oxide production | affinity for the NMDA subclass of glutamate receptors [6]: modest affinity
